The test system of experiment [1] is IL3000 T. congolense (drug sensitive) strain. As to the kind of experiment: In vitro Alamar Blue 72 h drug sensitivity assay for T. congolense. The format is cell-based, Trypanosoma congolense. The note with it: Trypanosoma congolense, 72 h, bloodstream form, 69 h + 3 h Resazurin, 34° C., read-out: IC50: I Org. Growth T. congolense 3 d. In a few lines: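 IC50 values derive from 11-point curves averaged over at least three independent runs, with fluorescence read at 536 nm excitation and 588 nm emission. Resazurin was added for a final 3 h after 69 h compound exposure of bloodstream forms (HMI medium, 20% bovine serum, 34° C, 5% CO2).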

The test system of experiment [2] is T. cruzi amastigote (Td Tomato-modified) in Vero cells. Put plainly: In vitro IC50 measurement of T. cruzi amastigote killing using Td Tomato-modified T. cruzi. Type of experiment: cell-based. The note with it: Trypanosoma cruzi, 72 h, fluorescence, read-out: IC50: I Org. amastigote Growth T. cruzi 3 d. In a few lines:
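IC50/IC90 came from nonlinear regression of Day 3 minus Day 0 fluorescence (544/612 nm), correcting for input parasites. Final compound concentrations spanned 5 nM–5 uM on Td Tomato T. cruzi-infected Vero cells, 72 h at 37 °C.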

`Cc1c(C(=O)N(C)[C@H](C(=O)OCc2ccc(F)cc2)C(C)C)ccc2c1B(O)OC2` [Example 6-118, 4-Fluorobenzyl N-(1-hydroxy-7-methyl-1,3-dihydrobenzo[c][1,2]oxaborole-6-carbonyl)-N-methyl-L-valinate]: the figures for the IC50 in experiment [1] and in experiment [2] were 10 to 5000 nM and not below 1000 nM, respectively.
On the same counts, the results for `Cc1c(C(=O)N[C@H](C(=O)OCc2cccc(CN3CCOCC3)c2)C(C)C)ccc2c1B(O)OC2` [Example 6-083, 3-(Morpholinomethyl)benzyl (1-hydroxy-7-methyl-1,3-dihydrobenzo[c][1,2]oxaborole-6-carbonyl)-L-valinate] are less than 0.5 nM and not above 20 nM.
Consider `Cc1c(C(=O)N[C@H](C(=O)OCc2cncs2)C(C)C)ccc2c1B(O)OC2` [Example 6-120, Thiazol-5-ylmethyl (1-hydroxy-7-methyl-1,3-dihydrobenzo[c][1,2]oxaborole-6-carbonyl)-L-valinate], for which the IC50 in experiment [1] was in the range of 0.51 to 9.99 nM; in experiment [2], 21 to 999 nM.
Taken in the same sequence, the figures for `Cc1c(C(=O)N[C@H](C(=O)OC[C@@H](O)CO)C(C)C)ccc2c1B(O)OC2` [Example 6-148, (S)-2,3-dihydroxypropyl (1-hydroxy-7-methyl-1,3-dihydrobenzo[c][1,2]oxaborole-6-carbonyl)-L-valinate] were 10 to 5000 nM and not below 1000 nM.
On the same counts, the results for `Cc1c(C(=O)N[C@H](C(=O)OC2CCCC2)C(C)C)ccc2c1B(O)OC2` [Example 6-132, Cyclopentyl (1-hydroxy-7-methyl-1,3-dihydrobenzo[c][1,2]oxaborole-6-carbonyl)-L-valinate] are less than 0.5 nM and not above 20 nM.
`Cc1c(C(=O)N[C@H](C(=O)OCc2cccc(OC(F)(F)F)c2)C(C)C)ccc2c1B(O)OC2` [Example 6-055, 3-Trifluoromethoxybenzyl (1-hydroxy-7-methyl-1,3-dihydrobenzo[c][1,2]oxaborole-6-carbonyl)-L-valinate]: the half-maximal inhibitory concentration (IC50) in experiment [1] was less than 0.5 nM; in experiment [2], not above 20 nM.
On the same counts, the results for `Cc1c(C(=O)N[C@H](C(=O)OCc2cnc(N)nc2)C(C)C)ccc2c1B(O)OC2` [Example 6-225, (2-aminopyrimidin-5-yl)methyl (1-hydroxy-7-methyl-1,3-dihydrobenzo[c][1,2]oxaborole-6-carbonyl)-L-valinate] are 10 to 5000 nM and 21 to 999 nM.
Consider `Cc1c(C(=O)N[C@H](C(=O)OCc2cnc3ccccc3n2)C(C)C)ccc2c1B(O)OC2` [Example 6-123, Quinoxalin-2-ylmethyl (1-hydroxy-7-methyl-1,3-dihydrobenzo[c][1,2]oxaborole-6-carbonyl)-L-valinate], for which the concentration for half-maximal inhibition (IC50) is less than 0.5 nM in experiment [1] and not above 20 nM in experiment [2].
In the case of `Cc1c(C(=O)N[C@H](C(=O)OCc2ccc(F)cn2)C(C)C)ccc2c1B(O)OC2` [Example 6-067, (5-Fluoropyridin-2-yl)methyl (1-hydroxy-7-methyl-1,3-dihydrobenzo[c][1,2]oxaborole-6-carbonyl)-L-valinate], the IC50 in experiment [1] was less than 0.5 nM; in experiment [2] it was not above 20 nM.
As to `Cc1c(C(=O)N[C@H](C(=O)OCc2ccc(F)cc2)C2CC2)ccc2c1B(O)OC2` [Example 6-050, 4-Fluorobenzyl (S)-2-cyclopropyl-2-(1-hydroxy-7-methyl-1,3-dihydrobenzo[c][1,2]oxaborole-6-carboxamido)acetate], the half-inhibitory concentration (IC50) in experiment [1] was less than 0.5 nM; in experiment [2] it was 21 to 999 nM.
Taken in the same sequence, the figures for `Cc1c(C(=O)N[C@H](C(=O)OC(C)C)C(C)C)ccc2c1B(O)OC2` [Example 6-112, Isopropyl (1-hydroxy-7-methyl-1,3-dihydrobenzo[c][1,2]oxaborole-6-carbonyl)-L-valinate] were 0.51 to 9.99 nM and not above 20 nM.
On the same counts, the results for `Cc1c(C(=O)NC2(C(=O)OCc3ccc(F)cc3)COC2)ccc2c1B(O)OC2` [Example 6-221, 4-fluorobenzyl 3-(1-hydroxy-7-methyl-1,3-dihydrobenzo[c][1,2]oxaborole-6-carboxamido)oxetane-3-carboxylate] are 0.51 to 9.99 nM and 21 to 999 nM.
Taken in the same sequence, the figures for `Cc1c(C(=O)N[C@H](C(=O)OCC2COC2)C(C)C)ccc2c1B(O)OC2` [Example 6-150, Oxetan-3-ylmethyl (1-hydroxy-7-methyl-1,3-dihydrobenzo[c][1,2]oxaborole-6-carbonyl)-L-valinate] were 0.51 to 9.99 nM and 21 to 999 nM.
As for `Cc1c(C(=O)NC2(C(=O)OCc3ccc(F)cc3)CCC2)ccc2c1B(O)OC2` [Example 6-066, 4-Fluorobenzyl 1-(1-hydroxy-7-methyl-1,3-dihydrobenzo[c][1,2]oxaborole-6-carboxamido)cyclobutane-1-carboxylate], the half-maximal inhibitory concentration (IC50) was less than 0.5 nM in experiment [1] and not above 20 nM in experiment [2].
Taken in the same sequence, the figures for `CCc1c(C(=O)N[C@H](C(=O)OCc2ccccc2)C(C)C)ccc2c1B(O)OC2` [Example 6-053, Benzyl (7-ethyl-1-hydroxy-1,3-dihydrobenzo[c][1,2]oxaborole-6-carbonyl)-L-valinate] were less than 0.5 nM and 21 to 999 nM.
For `Cc1c(C(=O)N[C@H](C(=O)OC(C)(C)C)C(C)C)ccc2c1B(O)OC2` [Example 6-188, Tert-butyl (1-hydroxy-7-methyl-1,3-dihydrobenzo[c][1,2]oxaborole-6-carbonyl)-L-valinate], the IC50 was 10 to 5000 nM in experiment [1] and not below 1000 nM in experiment [2].
On the same counts, the results for `Cc1c(C(=O)N[C@H](C(=O)OCc2ccc(CN3CCOCC3)cc2)C(C)C)ccc2c1B(O)OC2` [Example 6-130, 4-(Morpholinomethyl)benzyl (1-hydroxy-7-methyl-1,3-dihydrobenzo[c][1,2]oxaborole-6-carbonyl)-L-valinate] are less than 0.5 nM and 21 to 999 nM.
Taken in the same sequence, the figures for `Cc1c(C(=O)N[C@H](C(=O)OCc2nccc(C(F)(F)F)n2)C(C)C)ccc2c1B(O)OC2` [Example 6-203, (4-(trifluoromethyl)pyrimidin-2-yl)methyl (1-hydroxy-7-methyl-1,3-dihydrobenzo[c][1,2]oxaborole-6-carbonyl)-L-valinate] were less than 0.5 nM and not above 20 nM.
For `Cc1c(C(=O)N[C@H](C(=O)OCc2ccc(OCCN3CCOCC3)cc2)C(C)C)ccc2c1B(O)OC2` [Example 6-247, 4-(2-Morpholinoethoxy)benzyl(1-hydroxy-7-methyl-1,3-dihydrobenzo[c][1,2]oxaborole-6-carbonyl)-L-valinate], the IC50 in experiment [1] is 0.51 to 9.99 nM; in experiment [2], not above 20 nM.
Taken in the same sequence, the figures for `Cc1c(C(=O)N[C@H](C(=O)OCC2(O)CCCC2)C(C)C)ccc2c1B(O)OC2` [Example 6-220, (1-hydroxycyclopentyl)methyl (1-hydroxy-7-methyl-1,3-dihydrobenzo[c][1,2]oxaborole-6-carbonyl)-L-valinate] were 0.51 to 9.99 nM and not above 20 nM.
Taken in the same sequence, the figures for `Cc1c(C(=O)N[C@H](C(=O)OCc2ncc[nH]2)C(C)C)ccc2c1B(O)OC2` [Example 6-143, (1H-Imidazol-2-yl)methyl (1-hydroxy-7-methyl-1,3-dihydrobenzo[c][1,2]oxaborole-6-carbonyl)-L-valinate] were 10 to 5000 nM and not below 1000 nM.
On the same counts, the results for `CC[S+]([O-])c1ccc(COC(=O)[C@@H](NC(=O)c2ccc3c(c2C)B(O)OC3)C(C)C)cc1` (stereo partly drawn) [Example 6-094, 4-(Ethylsulfinyl)benzyl (1-hydroxy-7-methyl-1,3-dihydrobenzo[c][1,2]oxaborole-6-carbonyl)-L-valinate] are 0.51 to 9.99 nM and 21 to 999 nM.

These data come from patent US11578087B2, “Oxaborole esters and uses thereof” (priority 2016, dated 2023).
